Test results published in US12065435B2, “Compounds for the treatment of glycogen storage disorders” (HADASIT MEDICAL RESEARCH SERVICES AND DEVELOPMENT LTD., priority 2017, dated 2024).

Experiments:
[1] = system: polyglucosan body (PB) in APBD patient-derived fibroblasts; experiment: High content (image-based) PAS screening assay for polyglucosan bodies; format: cell-based, human; details: 0, 1, 5, 10 and 50 μM
Protocol: All the steps of the assay were performed automatically using a Freedom Evo 150 liquid handling robot (Tecan). APBD patient-derived fibroblasts were seeded at a density of 800 cells/well in DMEM (Gibco) supplemented with 1 mM sodium pyruvate (Gibco), 1% antibiotics (Biological Industries, Israel) and 5% fetal bovine serum (Hyclone) into 384 well microclear plates (Greiner). The plates were transferred by the robotic arm (RoMa) into an automated incubator (Liconic), integrated with the robotic system, where they were incubated at 37° C. with 5% CO2. Following 24 h incubation, the medium was replaced by the robot using medium supplemented with 10 μM of each screened compound (0.1% DMSO final concentration, all prepared by the robot). The screened compounds were part of the Diverset CL collection purchased from ChemBridge (10,084 out of 50,000 molecules).
Next, these cells were cultured for another 24 h in the automated incubator, and, using the robot, washed them with PBS (Biological Industries, Israel), the cells were fixed with 4% paraformaldehyde (PFA), washed again with PBS, neutralized the previously added PFA by ammonium chloride (Sigma Aldrich), washed with PBS, permeabilized with 0.1% Triton X-100 (Sigma Aldrich), and washed again with PBS.
Following this, a robot was used to treat the fixed cells with 0.5 g/dl diastase (or amylase, Sigma Aldrich) for 5 minutes at 37° C. in the automated incubator, wash with PBS, stained with PAS (Merck), Hoechst 33342 (Sigma Aldrich) and Cell Mask Deep Red (Molecular Probes) and wash with PBS. Images of stained cells were then acquired by the IN Cell Analyzer 2000 (GE Healthcare) and analyzed using the IN Cell Investigator (GE Healthcare) applying an algorithm that quantified the PAS signal within each Cell Mask stained cell.
Images were segmented based on the Cell Mask signal which was linked with the segmentation of the nuclei, employing an empirically established sensitivity and kernel size for allowing the best segmentation. Once these nucleus-cytoplasm complex objects were selected, the software calculated the number of these objects (cell number) as well as the intensity of the PAS signal within each of them. All the assay parameters (including the acquisition exposure times, objective, and the analysis parameters) were kept constant throughout the whole screening campaign for allowing comparison of signals obtained from different batches of assay within the campaign.
The assay was performed as mentioned above, but with compound concentrations of 1, 5, 10, and 50 μM, instead of a constant concentration of 10 μM.
The discarded data was presumably associated with cells affected by toxic compounds. In the remaining data, the measured population mean PB intensity was normalized. Based on a series of images used for training, compounds were considered as positive only where following treatment the normalized PB mean intensity was at least under −1.2 z-score of the scale. Following this approach, 85 potential hits out of the 10,084 screened compounds were selected (0.84%).

APBD skin fibroblasts = experiment: Multi-parametric cell-phenotypic characterization of APBD skin fibroblasts; format: cell-based, human; details: APBD fibroblasts treated with compound
Excerpt: FIG. 10 presents a graph showing multi-parametric cell-phenotypic characterization of healthy control (HC) and APBD skin fibroblasts. Upper panel: the extent of deviation from healthy control of the cell features shown, ordered by the amount of deviation (-log (P value)). […] The different comparisons analyzed are shown at the bottom of the panel.
Next, the multi-parametric analysis of compound A, one of the compounds tested in the Gbe^Y329S/Y329S mouse model for APBD was completed. The different cell features in APBD fibroblasts of several patients were ordered according to the extent of their deviation from the same features in healthy fibroblasts.

[2] = system: APBD modeling mice (Gbe^Y329S/Y329S mouse model); experiment: Motor parameters in APBD modeling mice; format: in vivo; details: for ameliorating effect on motor parameters (summary): tested every two weeks
Protocol: This study was conducted in compounds A and B according to the schemes described in Tables 8 and 9, respectively.
As vehicle control, 0.1% DMSO was used. It is noteworthy that, in order to have a statistically significant number of animals, compound A was tested in male mice and compound B in female mice (no mixed cages were allowed).
APBD is an autosomal disease with no gender related symptoms and it was presumed that this experimental design is optimal. The mode of delivery of the compounds was intravenous (IV) injection for the first month, followed by subcutaneous injection due to lack of injection space and scaring in animal tails.
Tables 8 and 9 describe the study design for compounds A and B. both compounds were tested at the age of 4 months, two months prior to disease onset, in order to assess possible prophylactic effects, and at the age of 6 months, at disease onset, in order to assess corrective effects.
The effect of compounds A and B on various motor parameters was tested every two weeks. The results are shown in herein.
The point of reference is one time point prior to treatment initiation. Please note, since animals first treated with the compounds at 6 months of age were not injected at all before that age, they could not have been compared to animals pre-injected with vehicle. Therefore, the duration of the longitudinal studies for the cohorts first treated at the age of 6 months is shorter than that of the animals first treated at 4 months of age.

APBD mice = details: mouse, in vivo
[3] = treated from 4 months of age (2 months before onset), two way ANOVA with repeated measures
[4] = treated from 4 months of age, Bonferroni's multiple comparisons test
[5] = treated from 6 months of age (at onset), two way ANOVA with repeated measures
[6] = treated from 6 months of age, Bonferroni's multiple comparisons test

In the case of `COCCN(Cc1sccc1C)C(=O)c1cc(C)[nH]c(=O)c1` [UDP #4, N-(2-methoxyethyl)-6-methyl-N-[(3-methyl-2-thienyl)methyl]-2-oxo-1,2-dihydropyridine-4-carboxamide], the “dose response of diastase resistant cell associated mean PAS intensity normalized by z-score” value [1] is reported as “lowered mean normalized PAS intensity in a non-dose responding manner”, the “area of respiring (TMRE labeled) mitochondria” value (APBD skin fibroblasts) is reported as “decreased” and the nuclear intensity (APBD skin fibroblasts) is reported as “increased”. The “apathy, mobility and responsiveness to experimenter” value ([2]; 250 mg/kg, IV first month then subcutaneous) was “less apathic, more mobile and more responsive to intervention by the experimenter”, the “ameliorating effect on motor parameters (summary)” value ([2]; 250 mg/kg, IV first month then subcutaneous, listed as Compound A) was “ameliorate extension reflex, grip strength and gait” and the “ameliorating effect on motor parameters (summary)” value ([2]; 250 mg/kg, IV first month then subcutaneous, listed as compound A) was “improves the uniformity of step alteration”. For the same compound, the “average duration in movement in an open field test vs vehicle” value (“average duration in movement … vs vehicle” below) [2, 3] was “not different from vehicle (p<0.1)”, the “average front paw grip strength vs vehicle” value [2, 3] was “not different from vehicle (p<0.1)” and the “average gait length vs vehicle” value [2, 3] was “not different from vehicle (p<0.1)”. For the same compound, the “average gait width vs vehicle” value [2, 3] was “not different from vehicle (p<0.1)”, the “average latency to fall off a metal wire vs vehicle” value [2, 3] was “not different from vehicle (p<0.1)” and the “average latency to fall off a rotating cylinder (rotarod) vs vehicle” value (“average latency … (rotarod) vs vehicle” below) [2, 3] was “not different from vehicle (p<0.1)”. The “average regularity of step distance (Coefficient of Variance of all R-R and L-L step distances) vs vehicle” value [2, 3] was “significantly different from vehicle (p<0.01)”, the “average uniformity of step alternation (|0.5-(R-L/R-R)|) vs vehicle” value [2, 3] was “not different from vehicle (p<0.1)” and the “extension reflex vs vehicle” value [2, 3] was “different from vehicle with p<0.09”. For the same compound, the “average duration in movement … vs vehicle” value [2, 4] was “no significant difference”, the “average front paw grip strength vs vehicle” value [2, 4] was “a significant difference (p<0.05) between vehicle and treatment at 32 days after initiation of treatment” and the “average gait length vs vehicle” value [2, 4] was “no significant difference”. For the same compound, the “average gait width vs vehicle” value [2, 4] was “no significant difference”, the “average latency to fall off a metal wire vs vehicle” value [2, 4] was “no significant difference” and the “average latency … (rotarod) vs vehicle” value [2, 4] was “no significant difference”. The “average regularity of step distance vs vehicle” value [2, 4] was “a significant difference (p<0.05) between vehicle and treatment at 81 days after treatments initiation”, the “average uniformity of step alternation vs vehicle” value [2, 4] was “a significant difference (p<0.05) between vehicle and treatment 95 days after treatment initiation” and the “extension reflex vs vehicle” value [2, 4] was “no significant difference”. For the same compound, the “average duration in movement … vs vehicle” value [2, 5] was “not different from vehicle (p<0.1)”, the “average front paw grip strength vs vehicle” value [2, 5] was “different from vehicle with p<0.055” and the “average gait length vs vehicle” value [2, 5] was “not different from vehicle (p<0.1)”. The “average gait width vs vehicle” value [2, 5] was “not different from vehicle (p<0.1)”, the “average latency to fall off a metal wire vs vehicle” value [2, 5] was “not different from vehicle (p<0.1)” and the “average latency … (rotarod) vs vehicle” value [2, 5] was “not different from vehicle (p<0.1)”. For the same compound, the “average regularity of step distance vs vehicle” value [2, 5] was “not different from vehicle (p<0.1)”, the “average uniformity of step alternation (|0.5-(R-L/R-R)|) vs vehicle” value [2, 5] was “significantly different from vehicle (p<0.06)” and the “extension reflex vs vehicle” value [2, 5] was “not different from vehicle (p<0.1)”. The “average duration in movement … vs vehicle” value [2, 6] was “no significant difference”, the “average front paw grip strength vs vehicle” value [2, 6] was “no significant difference” and the “average gait length vs vehicle” value [2, 6] was “no significant difference”. For the same compound, the “average gait width vs vehicle” value [2, 6] was “no significant difference”, the “average latency to fall off a metal wire vs vehicle” value [2, 6] was “no significant difference” and the “average latency … (rotarod) vs vehicle” value [2, 6] was “no significant difference”. The “average regularity of step distance vs vehicle” value [2, 6] was “no significant difference”, the “average uniformity of step alternation vs vehicle” value [2, 6] was “a significant difference (p<0.05) between vehicle and treatment 95 days after treatment initiation” and the “extension reflex vs vehicle” value [2, 6] was “no significant difference”.

In the case of `CO[C@H]1C[C@@H]2CC[C@@H](C)[C@@](O)(O2)C(=O)C(=O)N2CCCC[C@H]2C(=O)O[C@H]([C@H](C)C[C@@H]2CC[C@@H](O)[C@H](OC)C2)CC(=O)[C@H](C)/C=C(\C)[C@@H](O)[C@@H](OC)C(=O)[C@H](C)C[C@H](C)/C=C/C=C/C=C/1C` [rapamycin], the “toxic effects in APBD mice” value (APBD mice) is reported as “toxic effects”.
